Drawing on ChEMBL document CHEMBL3045870, “Some new thiazolyl thiazolidinedione derivatives as aldose reductase inhibitors” (Med Chem Res, 2007), this text covers inhibition for twelve compounds.

A word on the inhibition: it is the share of the control response that was lost under treatment.

In the assay the target is Aldo-keto reductase family 1 member B1 (Rattus norvegicus) (UniProt P07943). Kind of assay: Inhibition of Rattus norvegicus (rat) kidney aldose reductase using D-L-glyceraldehyde as substRattus norvegicus (rat) e assessed as decrease in NADPH level at 10^-4 M measured for 5 min by spectrophotometric analysis.

On to `O=C1S/C(=C\c2sc(SCc3ccc(Cl)cc3)nc2Cl)C(=O)N1Cc1ccc(F)cc1`, for which the inhibition was 0%. With `O=C1S/C(=C\c2sc(SCc3ccc(Cl)cc3)nc2Cl)C(=O)N1Cc1ccc(Cl)cc1Cl`, the inhibition turned out to be 1.56%.

With `O=C1S/C(=C\c2sc(SCc3ccc(Cl)cc3)nc2Cl)C(=O)N1Cc1ccc(Cl)cc1`, the inhibition was 0%. In the case of `O=C1S/C(=C\c2sc(SCc3ccc(Cl)cc3)nc2Cl)C(=O)N1Cc1ccccc1`, the inhibition came to 0%. In the case of `O=C1S/C(=C\c2sc(SCc3ccc(Cl)cc3)nc2Cl)C(=O)N1Cc1ccc([N+](=O)[O-])cc1`, the inhibition is 0%. For `O=C1S/C(=C\c2sc(N3CCCCC3)nc2Cl)C(=O)N1Cc1ccccc1`, the inhibition worked out at 0%. Take `O=C1S/C(=C\c2sc(N3CCCCC3)nc2Cl)C(=O)N1Cc1ccc(Cl)cc1`: the inhibition stood at 0.62%. For the compound `O=C1S/C(=C\c2sc(SCc3ccc(Cl)cc3)nc2Cl)C(=O)N1Cc1ccc(Br)cc1`, the inhibition is 0%.

Regarding `O=C1S/C(=C\c2sc(N3CCCCC3)nc2Cl)C(=O)N1Cc1ccc(Cl)cc1Cl`, the inhibition stood at 3.27%. On to `O=C1S/C(=C\c2sc(N3CCCCC3)nc2Cl)C(=O)N1Cc1ccc(F)cc1`, for which the inhibition was found to be 0%.

Regarding `O=C1S/C(=C\c2sc(N3CCCCC3)nc2Cl)C(=O)N1Cc1ccc([N+](=O)[O-])cc1`, the inhibition was found to be 2.49%. As to `O=C1S/C(=C\c2sc(N3CCCCC3)nc2Cl)C(=O)N1Cc1ccc(Br)cc1`, the inhibition turned out to be 0.62%.
